From patent US5516897A, “Monoazo reactive dyes and solutions thereof” (Zeneca Limited, priority 1992, dated 1996)

Test: solubility in water
Type: physicochemical
Details: for solubility in water: temperature not stated
Excerpt: The concentrated solution was desalinated in a visking tubing placed in distilled water and the water replaced periodically until no further chloride ions could be detected using […] and the product precipitated by addition of ethanol to give 46 g of the title product (80% yield) having a lambda max at 417 nm and very high solubility in water.
The higher solubility of C1 compared with D1 and D2 means that more C1 can be prepared in a given vessel than for D1 or D2.

| solubility in water | Compound | further results |
| --- | --- | --- |
| very high | CCN(c1nc(Cl)nc(Nc2ccc(N=Nc3cc4c(S(=O)(=O)O)cc(S(=O)(=O)O)cc4cc3S(=O)(=O)O)c(NC(N)=O)c2)n1)c1cc(S(=O)(=O)O)ccc1C [Example 1] |  |
|  | CC(C)N(c1ccc(S(=O)(=O)O)cc1)c1nc(Cl)nc(Nc2ccc(N=Nc3cc4c(S(=O)(=O)O)cc(S(=O)(=O)O)cc4cc3S(=O)(=O)O)c(NC(N)=O)c2)n1 [Example 4] | solubility in water at 20° C. (20° C.): very high |
| high | CC(C)N(c1cccc(S(=O)(=O)O)c1)c1nc(Cl)nc(Nc2ccc(N=Nc3cc4c(S(=O)(=O)O)cc(S(=O)(=O)O)cc4cc3S(=O)(=O)O)c(NC(N)=O)c2)n1 [Example 3] |  |
|  | CCN(c1nc(Cl)nc(Nc2cc(NC(C)=O)c(N=Nc3cc(S(=O)(=O)O)c4cccc(S(=O)(=O)O)c4c3)cc2OC)n1)c1cc(S(=O)(=O)O)ccc1C [Example 5] | solubility in water at 25° C. (25° C.): good |
| very high | CCN(c1nc(Nc2ccc(N=Nc3cc4c(S(=O)(=O)O)cc(S(=O)(=O)[O-])cc4cc3S(=O)(=O)O)c(NC(N)=O)c2)nc(-[n+]2ccc(C(=O)O)cc2)n1)c1cc(S(=O)(=O)O)ccc1C [Example 2] |  |
